# Test results published in article PMC10818931, “In Vitro Evaluation of Drug–Drug Interaction Potential of Epetraborole, a Novel Bacterial Leucyl-tRNA Synthetase Inhibitor” (Pharmaceuticals, 2024).
# What was measured:
# CYP2B6 = experiment: CYP inhibition (direct and metabolism-dependent) in human hepatic microsomes; assay type: in vitro ADME
# Experimental: (§1) The direct inhibitory potential of EBO on cytochrome P450 activities O-deethylase (CYP1A2), bupropion hydroxylase (CYP2B6), amodiaquine N-deethylase (CYP2C8), diclofenac 4′-hydroxylase (CYP2C9), S-mephenytoin 4′-hydroxylase (CYP2C19), bufuralol 1′-hydroxylase (CYP2D6), chlorzoxazone 6-hydroxylase (CYP2E1), testosterone 6β-hydroxylase (CYP3A), and midazolam 1′-hydroxylase (CYP3A) was assessed in vitro using human hepatic microsomes according to Covance Laboratory (Madison, WI, USA) SOP. A single substrate concentration was used, approximating the concentration of substrate that gives half the maximum reaction velocity (Km) for human hepatic microsomes for each cytochrome P450 activity. […] All sample and control incubations were performed in triplicate and were analyzed by LC-MS/MS. Incubation mixtures contained microsomal protein and substrate in a 0.1 M potassium phosphate buffer (pH 7.4) containing 1 mM EDTA (assay buffer). […] Incubations were terminated by the addition of 100 µL of an internal standard solution followed by vortex mixing. Protein was removed by centrifugation at 1500× g for 5 min at 4 °C, and supernatants were transferred to a separate plate and stored at 4 °C prior to LC-MS/MS analysis. The analyte for each activity assay was quantitated by comparison to a linear curve of an authentic standard prepared using human microsomal protein. […] Incubations were performed at substrate concentrations approximating the average Km values. […] For determination of control activities, NADPH was added after the addition of each substrate. Samples were then processed as previously described.
# CYP2C19 = target: T1, CYP2C19 (Homo sapiens, UniProt P33261); experiment: as above; assay type: in vitro ADME
# T1 construct: tissue CellzDirect; XenoTech LLC; host or cells: pooled human liver microsomes
# Experimental: as §1
# CYP2E1 = target: T2, CYP2E1 (Homo sapiens, UniProt P05181); experiment: as above; assay type: in vitro ADME
# T2 construct: Characterized, pooled, human hepatic microsomes from 15 individuals; tissue CellzDirect (Durham, NC, USA) or XenoTech LLC (Lenexa, KS, USA); host or cells: pooled human liver microsomes (15 donors)
# Experimental: as §1
# CYP3A4 = experiment: Automated time-dependent inhibition assay in HLM; assay type: in vitro ADME, human; details: EBO 30 and 50 µM, 30 min preincubation with NADPH
# Experimental: The effect of EBO (30 and 50 µM) on time-dependent inhibition of CYP3A4 (testosterone and midazolam substrate) and CYP2D6 ([…] substrate) was determined using methodologies described previously. The Genesis robot (Tecan, Reading, UK) running Gemini software (https://www.tecan.com) was used to perform a fully automated TDI assay. The assay ran a preincubation (30 min at 37 °C, 1 mg/mL HLM incubation containing 1 mM NADPH and EBO) and a secondary incubation (containing 50 µL aliquot from the preincubation, 1 mM NADPH, and substrates for CYP3A4 and CYP2D6). At the end of the secondary incubation (15 min at 37 °C), an aliquot (50 µL) was removed and added to 100 µL of methanol to quench the reaction. Quenched samples were then chilled at −20 °C for 2 h, centrifuged at 2000× g for 15 min, and the supernatants were transferred to microtiter plates for LC/MS-MS analysis.
# major CYP enzymes = experiment: Stability studies (CYP substrate potential, hepatic microsomes); assay type: in vitro ADME
# P-gp = P-gp (Homo sapiens, UniProt P08183); experiment: Effect on P-gp mediated transport of 3H-digoxin in Caco-2; assay type: in vitro ADME; set-up: host or cells: Caco-2
# Experimental: The concentrations of each radiolabeled compound in the resulting samples were determined using liquid scintillation counting (LSC).
# [1] = metabolism-dependent inhibition
# T1 sequence (P33261 whole entry): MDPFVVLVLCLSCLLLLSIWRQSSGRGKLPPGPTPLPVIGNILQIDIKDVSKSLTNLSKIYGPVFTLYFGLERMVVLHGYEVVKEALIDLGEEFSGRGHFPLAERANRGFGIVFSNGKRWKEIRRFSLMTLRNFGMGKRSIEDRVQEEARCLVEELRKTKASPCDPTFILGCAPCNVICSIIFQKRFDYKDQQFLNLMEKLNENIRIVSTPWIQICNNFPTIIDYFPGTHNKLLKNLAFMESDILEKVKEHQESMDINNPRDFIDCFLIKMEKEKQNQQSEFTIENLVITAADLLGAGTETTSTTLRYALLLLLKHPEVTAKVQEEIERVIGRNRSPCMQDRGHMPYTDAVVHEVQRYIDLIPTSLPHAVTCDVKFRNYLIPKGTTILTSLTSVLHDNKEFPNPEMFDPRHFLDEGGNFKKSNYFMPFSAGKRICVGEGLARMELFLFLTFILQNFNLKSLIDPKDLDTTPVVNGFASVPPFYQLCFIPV
# T2 sequence (P05181 whole entry): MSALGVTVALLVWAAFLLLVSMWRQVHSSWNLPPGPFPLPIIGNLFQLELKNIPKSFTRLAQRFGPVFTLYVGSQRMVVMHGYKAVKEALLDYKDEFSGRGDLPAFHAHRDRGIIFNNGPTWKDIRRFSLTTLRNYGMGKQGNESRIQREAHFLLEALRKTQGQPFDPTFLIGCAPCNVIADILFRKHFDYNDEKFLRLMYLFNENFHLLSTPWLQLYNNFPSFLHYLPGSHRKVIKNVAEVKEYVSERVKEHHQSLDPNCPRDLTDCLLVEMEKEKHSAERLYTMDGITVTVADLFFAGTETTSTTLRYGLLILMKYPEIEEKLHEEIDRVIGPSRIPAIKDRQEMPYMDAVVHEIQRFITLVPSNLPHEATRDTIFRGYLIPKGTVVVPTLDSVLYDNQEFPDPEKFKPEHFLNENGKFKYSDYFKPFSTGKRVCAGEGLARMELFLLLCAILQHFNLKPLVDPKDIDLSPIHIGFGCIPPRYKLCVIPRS
# P-gp, sequence (P08183 whole entry): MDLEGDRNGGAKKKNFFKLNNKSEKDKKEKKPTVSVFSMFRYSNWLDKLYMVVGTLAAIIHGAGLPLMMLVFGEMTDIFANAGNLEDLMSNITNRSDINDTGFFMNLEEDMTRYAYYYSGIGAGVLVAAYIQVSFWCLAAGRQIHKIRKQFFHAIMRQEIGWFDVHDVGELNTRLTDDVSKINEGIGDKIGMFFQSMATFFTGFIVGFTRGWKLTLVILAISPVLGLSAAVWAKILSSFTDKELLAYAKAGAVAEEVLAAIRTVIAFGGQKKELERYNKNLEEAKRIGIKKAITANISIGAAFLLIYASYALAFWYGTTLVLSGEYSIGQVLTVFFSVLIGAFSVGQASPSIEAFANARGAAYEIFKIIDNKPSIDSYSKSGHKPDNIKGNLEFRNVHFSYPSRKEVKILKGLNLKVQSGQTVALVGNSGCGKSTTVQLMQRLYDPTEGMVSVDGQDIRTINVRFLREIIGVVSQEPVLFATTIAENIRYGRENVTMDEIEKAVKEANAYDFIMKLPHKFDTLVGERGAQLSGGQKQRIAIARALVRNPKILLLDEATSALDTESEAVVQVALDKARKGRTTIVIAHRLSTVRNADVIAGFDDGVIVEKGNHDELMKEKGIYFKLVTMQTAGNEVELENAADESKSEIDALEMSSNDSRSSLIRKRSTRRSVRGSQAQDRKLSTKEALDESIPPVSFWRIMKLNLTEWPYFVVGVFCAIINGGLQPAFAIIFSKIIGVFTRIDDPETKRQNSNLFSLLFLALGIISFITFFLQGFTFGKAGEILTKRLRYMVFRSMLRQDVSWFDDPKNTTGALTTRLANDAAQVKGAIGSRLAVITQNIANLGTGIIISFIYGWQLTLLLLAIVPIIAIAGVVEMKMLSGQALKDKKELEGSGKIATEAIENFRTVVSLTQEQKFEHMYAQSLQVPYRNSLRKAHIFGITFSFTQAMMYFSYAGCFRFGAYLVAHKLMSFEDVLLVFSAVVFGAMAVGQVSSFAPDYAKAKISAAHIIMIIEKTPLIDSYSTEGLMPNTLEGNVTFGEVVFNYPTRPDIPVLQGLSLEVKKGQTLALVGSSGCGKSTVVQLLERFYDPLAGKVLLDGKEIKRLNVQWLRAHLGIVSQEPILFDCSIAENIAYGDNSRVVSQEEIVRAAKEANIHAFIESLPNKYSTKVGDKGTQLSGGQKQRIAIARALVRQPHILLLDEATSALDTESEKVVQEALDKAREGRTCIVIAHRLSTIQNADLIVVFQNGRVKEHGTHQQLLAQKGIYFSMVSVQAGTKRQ
smiles,measurement,setting,value
"NC[C@H]1OB(O)c2c(OCCCO)cccc21 [EBO, Epetraborole]",IC50,"CYP2B6; human, human liver microsomes, pH 7.4, probe bupropion, read-out: as an Inhibitor IC50",> 100 µM
same,MDI IC50 Fold Change,CYP2B6; [1],No
same,MDI IC50 Fold Change,CYP2C19; [1],No
same,IC50,CYP2C19; read-out: as an Inhibitor IC50,> 100 µM
same,MDI IC50 Fold Change,CYP2E1; [1],No
same,IC50,CYP2E1; read-out: as an Inhibitor IC50,> 100 µM
same,Time-dependent inhibition,CYP3A4,No time-dependent inhibition
same,Substrate for major CYP enzymes (stability studies),major CYP enzymes,poor substrate
same,Inhibition of P-gp-mediated transport of digoxin,P-gp,not a significant inhibitor
same,Efflux ratio of digoxin in the presence of test article,P-gp; EBO 100 µM,unchanged
